The structures appear in SMILES notation.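 Interpolation was linear, between the two tested concentrations surrounding the appropriate level; five concentrations were tested over 48 hours in 96-well plates. Here, GI50 denotes the concentration required for 50% inhibition of growth.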 The source made the active and inactive calls. Cut-off read from the data, not from the text of the source: active = GI50 up to about 1.1 µM and inactive = higher. Non-standard residues stand in square brackets, D forms with d. Residues, ends and D or L forms follow the SMILES beside them. *: point of attachment. Cbz = O=C(OCc1ccccc1)*; Boc = CC(C)(C)OC(=O)*; Aib = CC(C)(N)C(=O)O; OBn = c1ccc(CO*)cc1; OtBu = CC(C)(C)O*; βAla = NCCC(=O)O Bounds are passed on as bounds.

Holding throughout (experiment): NCI anticancer screen, dose series, 48 h
Experiment [1] concerns EKVX.
For experiment [2], the system named is HCC 2998.
Experiment [3] relates to HCT-116.
For experiment [4], the system named is HCT-15.
Experiment [5] deals with IGROV-1.
In experiment [6] the test system is K562.
Experiment [7] deals with MDA-MB-435.
The subject of experiment [8] is MDA-N.
In experiment [9] the test system is NCI-H23.
Experiment [10] has as its system NCI-H460.
Experiment [11] has as its system NCI-H522.
The subject of experiment [12] is NCI/ADR-RES.
Experiment [13] deals with PC-3.
Experiment [14] has as its system SNB-75.
Experiment [15] has as its system SR.
For experiment [16], the system named is TK-10.
The test system of experiment [17] is U-251.
Experiment [18] concerns UACC-257.
Experiment [19] relates to UO-31.
In experiment [20] the test system is SK-OV-3.

`CS(=O)(=O)OCC1CN(S(C)(=O)=O)c2cc(O)ccc21` (stereo not drawn): the GI50 in [1] is 4.37 µM (inactive); in [2] it was 1.89 µM (inactive); in experiment [3] it was 2.77 µM (inactive); in experiment [4], 3.1 µM; in [5], 3.85 µM (inactive); in experiment [6], 2.43 µM (inactive). The GI50 in [7] is 2.02 µM (inactive); in [8], 1.91 µM (inactive); in [9] it was 1.72 µM (inactive); in experiment [10], 2.96 µM (inactive); in [11], 1.11 µM (active); in [12] it was 3.09 µM (inactive). For the same compound, the GI50 in experiment [13] is 2.09 µM (inactive); in [14], 2.37 µM (inactive); in experiment [15], 2.05 µM (inactive); in [16], 2.37 µM (inactive); in experiment [17], 2.36 µM (inactive); in experiment [18], 2.68 µM (inactive). For the same compound, the GI50 in [19] was 3.26 µM (inactive).
Consider `O=C(CC(C(=O)c1cccs1)c1ccc2c(c1)OCO2)c1ccccc1` (stereo not drawn), for which the GI50 in experiment [2] is > 100 µM (inactive); in [3], 50.5 µM (inactive); in experiment [4] it was more than 100 µM; in experiment [5] it was > 100 µM (inactive); in experiment [7], 80.4 µM (inactive); in [8], > 100 µM (inactive). For the same compound, the GI50 in experiment [9] is > 100 µM (inactive); in experiment [10], 46.7 µM (inactive); in experiment [11] it was > 100 µM (inactive); in [12], > 100 µM (inactive); in [13], > 100 µM (inactive); in experiment [20], > 100 µM (inactive). For the same compound, the GI50 in [14] was > 100 µM (inactive); in experiment [15], 70.1 µM (inactive); in experiment [16], 19.6 µM (inactive); in experiment [17], > 100 µM (inactive); in [18], > 100 µM (inactive); in experiment [19], > 100 µM (inactive).
Consider `CCN(CC)CCOc1ccc(N2C(=O)c3cccc4cc([N+](=O)[O-])cc(c34)C2=O)cc1`, for which the GI50 in [1] was 16.3 µM (inactive); in experiment [2], 11.6 µM (inactive); in experiment [3], 3.88 µM (inactive); in [4] it was 6.64 µM; in [5], 7.08 µM (inactive); in [7] it was 11.5 µM (inactive). For the same compound, the GI50 was 14.6 µM (inactive) in experiment [8]; 11.6 µM (inactive) in experiment [9]; 0.524 µM (active) in [10]; 4.75 µM (inactive) in experiment [11]; 16.8 µM (inactive) in experiment [12]; 6.73 µM (inactive) in [13]. For the same compound, the GI50 in experiment [14] is 14.5 µM (inactive); in experiment [15] it was 0.372 µM (active); in experiment [16] it was 13.3 µM (inactive); in experiment [17] it was 10.8 µM (inactive); in experiment [18] it was 13.1 µM (inactive); in experiment [19] it was 9.12 µM (inactive).
Consider `CC(C)(C)OC(=O)CC(NC(=O)OC(C)(C)C)C(=O)NC(CCCCNC(=O)OCc1ccccc1)C(=O)NC(C)(C)C(=O)NCCC(=O)OCc1ccccc1` (stereo not drawn) (Boc-D(OtBu)K(Cbz)[Aib][βAla]-OBn; configuration not given here), for which the GI50 was > 100 µM (inactive) in [1]; > 100 µM (inactive) in experiment [3]; more than 100 µM in experiment [4]; > 100 µM (inactive) in experiment [5]; > 100 µM (inactive) in experiment [6]; > 100 µM (inactive) in [7]. For the same compound, the GI50 in experiment [8], in experiment [9], in experiment [10], in experiment [11], in experiment [12] and in experiment [13] was > 100 µM (inactive) each time. Also, the GI50 in experiment [20], in experiment [14], in experiment [15], in [16], in experiment [17] and in experiment [19] was > 100 µM (inactive) each time.
